# “Also recorded” adds a separate entry of the source.
# Key:
# RyR2 [1] = target: T1, RyR2 (Homo sapiens, UniProt Q92736); assay type: biochemical; conditions: COVID-19 patient brain tissue lysates (Ctx, CB) treated ex vivo with 10 μM compound at 4° C.; FIGS. 3A and B; p<0.05 vs untreated COVID-19
# T1 construct: RyR2 was immunoprecipitated from 1.5 mg of tissue lysate using an anti-RyR2 specific antibody; from tissue; host or cells: brain tissue (cortex, cerebellum) of COVID-19 patients and controls
# RyR2 [2] = target: T1, RyR2; test: [3H]ryanodine binding to immunoprecipitated RyR2 (surrogate of channel open probability / leak); assay type: biochemical
# Protocol: RyR2 was immunoprecipitated from 1.5 mg of tissue lysate using an anti-RyR2 specific antibody (25 μg) in 1.0 ml of a modified RIPA buffer overnight at 4° C. The immune complexes were incubated with protein A-Sepharose beads (Sigma) at 4° C. for 1 h, and the beads were washed three times with RIPA buffer, followed by 2 washes with ryanodine binding buffer (10 mM Tris-HCl, pH 6.8, 1 M NaCl, 1% CHAPS, 5 mg/ml phosphatidylcholine, and protease inhibitors). Immunoprecipitates were incubated in 0.2 ml of binding buffer containing 20 nM [^3H] ryanodine and either of 150 nM and 20 μm free Ca^2+ for 1 h at 37° C. Samples were diluted with 1 ml of ice-cold washing buffer (25 mm Hepes, pH 7.1, 0.25 m KCl) and filtered through Whatman GF/B membrane filters pre-soaked with 1% polyethyleneimine in washing buffer. Filters were washed three times with 5 ml of washing buffer. The radioactivity remaining on the filters is determined by liquid scintillation counting to obtain bound [^3H] ryanodine. Nonspecific binding was determined in the presence of 1000-fold excess of non-labeled ryanodine.
# T1 sequence (Q92736 whole entry): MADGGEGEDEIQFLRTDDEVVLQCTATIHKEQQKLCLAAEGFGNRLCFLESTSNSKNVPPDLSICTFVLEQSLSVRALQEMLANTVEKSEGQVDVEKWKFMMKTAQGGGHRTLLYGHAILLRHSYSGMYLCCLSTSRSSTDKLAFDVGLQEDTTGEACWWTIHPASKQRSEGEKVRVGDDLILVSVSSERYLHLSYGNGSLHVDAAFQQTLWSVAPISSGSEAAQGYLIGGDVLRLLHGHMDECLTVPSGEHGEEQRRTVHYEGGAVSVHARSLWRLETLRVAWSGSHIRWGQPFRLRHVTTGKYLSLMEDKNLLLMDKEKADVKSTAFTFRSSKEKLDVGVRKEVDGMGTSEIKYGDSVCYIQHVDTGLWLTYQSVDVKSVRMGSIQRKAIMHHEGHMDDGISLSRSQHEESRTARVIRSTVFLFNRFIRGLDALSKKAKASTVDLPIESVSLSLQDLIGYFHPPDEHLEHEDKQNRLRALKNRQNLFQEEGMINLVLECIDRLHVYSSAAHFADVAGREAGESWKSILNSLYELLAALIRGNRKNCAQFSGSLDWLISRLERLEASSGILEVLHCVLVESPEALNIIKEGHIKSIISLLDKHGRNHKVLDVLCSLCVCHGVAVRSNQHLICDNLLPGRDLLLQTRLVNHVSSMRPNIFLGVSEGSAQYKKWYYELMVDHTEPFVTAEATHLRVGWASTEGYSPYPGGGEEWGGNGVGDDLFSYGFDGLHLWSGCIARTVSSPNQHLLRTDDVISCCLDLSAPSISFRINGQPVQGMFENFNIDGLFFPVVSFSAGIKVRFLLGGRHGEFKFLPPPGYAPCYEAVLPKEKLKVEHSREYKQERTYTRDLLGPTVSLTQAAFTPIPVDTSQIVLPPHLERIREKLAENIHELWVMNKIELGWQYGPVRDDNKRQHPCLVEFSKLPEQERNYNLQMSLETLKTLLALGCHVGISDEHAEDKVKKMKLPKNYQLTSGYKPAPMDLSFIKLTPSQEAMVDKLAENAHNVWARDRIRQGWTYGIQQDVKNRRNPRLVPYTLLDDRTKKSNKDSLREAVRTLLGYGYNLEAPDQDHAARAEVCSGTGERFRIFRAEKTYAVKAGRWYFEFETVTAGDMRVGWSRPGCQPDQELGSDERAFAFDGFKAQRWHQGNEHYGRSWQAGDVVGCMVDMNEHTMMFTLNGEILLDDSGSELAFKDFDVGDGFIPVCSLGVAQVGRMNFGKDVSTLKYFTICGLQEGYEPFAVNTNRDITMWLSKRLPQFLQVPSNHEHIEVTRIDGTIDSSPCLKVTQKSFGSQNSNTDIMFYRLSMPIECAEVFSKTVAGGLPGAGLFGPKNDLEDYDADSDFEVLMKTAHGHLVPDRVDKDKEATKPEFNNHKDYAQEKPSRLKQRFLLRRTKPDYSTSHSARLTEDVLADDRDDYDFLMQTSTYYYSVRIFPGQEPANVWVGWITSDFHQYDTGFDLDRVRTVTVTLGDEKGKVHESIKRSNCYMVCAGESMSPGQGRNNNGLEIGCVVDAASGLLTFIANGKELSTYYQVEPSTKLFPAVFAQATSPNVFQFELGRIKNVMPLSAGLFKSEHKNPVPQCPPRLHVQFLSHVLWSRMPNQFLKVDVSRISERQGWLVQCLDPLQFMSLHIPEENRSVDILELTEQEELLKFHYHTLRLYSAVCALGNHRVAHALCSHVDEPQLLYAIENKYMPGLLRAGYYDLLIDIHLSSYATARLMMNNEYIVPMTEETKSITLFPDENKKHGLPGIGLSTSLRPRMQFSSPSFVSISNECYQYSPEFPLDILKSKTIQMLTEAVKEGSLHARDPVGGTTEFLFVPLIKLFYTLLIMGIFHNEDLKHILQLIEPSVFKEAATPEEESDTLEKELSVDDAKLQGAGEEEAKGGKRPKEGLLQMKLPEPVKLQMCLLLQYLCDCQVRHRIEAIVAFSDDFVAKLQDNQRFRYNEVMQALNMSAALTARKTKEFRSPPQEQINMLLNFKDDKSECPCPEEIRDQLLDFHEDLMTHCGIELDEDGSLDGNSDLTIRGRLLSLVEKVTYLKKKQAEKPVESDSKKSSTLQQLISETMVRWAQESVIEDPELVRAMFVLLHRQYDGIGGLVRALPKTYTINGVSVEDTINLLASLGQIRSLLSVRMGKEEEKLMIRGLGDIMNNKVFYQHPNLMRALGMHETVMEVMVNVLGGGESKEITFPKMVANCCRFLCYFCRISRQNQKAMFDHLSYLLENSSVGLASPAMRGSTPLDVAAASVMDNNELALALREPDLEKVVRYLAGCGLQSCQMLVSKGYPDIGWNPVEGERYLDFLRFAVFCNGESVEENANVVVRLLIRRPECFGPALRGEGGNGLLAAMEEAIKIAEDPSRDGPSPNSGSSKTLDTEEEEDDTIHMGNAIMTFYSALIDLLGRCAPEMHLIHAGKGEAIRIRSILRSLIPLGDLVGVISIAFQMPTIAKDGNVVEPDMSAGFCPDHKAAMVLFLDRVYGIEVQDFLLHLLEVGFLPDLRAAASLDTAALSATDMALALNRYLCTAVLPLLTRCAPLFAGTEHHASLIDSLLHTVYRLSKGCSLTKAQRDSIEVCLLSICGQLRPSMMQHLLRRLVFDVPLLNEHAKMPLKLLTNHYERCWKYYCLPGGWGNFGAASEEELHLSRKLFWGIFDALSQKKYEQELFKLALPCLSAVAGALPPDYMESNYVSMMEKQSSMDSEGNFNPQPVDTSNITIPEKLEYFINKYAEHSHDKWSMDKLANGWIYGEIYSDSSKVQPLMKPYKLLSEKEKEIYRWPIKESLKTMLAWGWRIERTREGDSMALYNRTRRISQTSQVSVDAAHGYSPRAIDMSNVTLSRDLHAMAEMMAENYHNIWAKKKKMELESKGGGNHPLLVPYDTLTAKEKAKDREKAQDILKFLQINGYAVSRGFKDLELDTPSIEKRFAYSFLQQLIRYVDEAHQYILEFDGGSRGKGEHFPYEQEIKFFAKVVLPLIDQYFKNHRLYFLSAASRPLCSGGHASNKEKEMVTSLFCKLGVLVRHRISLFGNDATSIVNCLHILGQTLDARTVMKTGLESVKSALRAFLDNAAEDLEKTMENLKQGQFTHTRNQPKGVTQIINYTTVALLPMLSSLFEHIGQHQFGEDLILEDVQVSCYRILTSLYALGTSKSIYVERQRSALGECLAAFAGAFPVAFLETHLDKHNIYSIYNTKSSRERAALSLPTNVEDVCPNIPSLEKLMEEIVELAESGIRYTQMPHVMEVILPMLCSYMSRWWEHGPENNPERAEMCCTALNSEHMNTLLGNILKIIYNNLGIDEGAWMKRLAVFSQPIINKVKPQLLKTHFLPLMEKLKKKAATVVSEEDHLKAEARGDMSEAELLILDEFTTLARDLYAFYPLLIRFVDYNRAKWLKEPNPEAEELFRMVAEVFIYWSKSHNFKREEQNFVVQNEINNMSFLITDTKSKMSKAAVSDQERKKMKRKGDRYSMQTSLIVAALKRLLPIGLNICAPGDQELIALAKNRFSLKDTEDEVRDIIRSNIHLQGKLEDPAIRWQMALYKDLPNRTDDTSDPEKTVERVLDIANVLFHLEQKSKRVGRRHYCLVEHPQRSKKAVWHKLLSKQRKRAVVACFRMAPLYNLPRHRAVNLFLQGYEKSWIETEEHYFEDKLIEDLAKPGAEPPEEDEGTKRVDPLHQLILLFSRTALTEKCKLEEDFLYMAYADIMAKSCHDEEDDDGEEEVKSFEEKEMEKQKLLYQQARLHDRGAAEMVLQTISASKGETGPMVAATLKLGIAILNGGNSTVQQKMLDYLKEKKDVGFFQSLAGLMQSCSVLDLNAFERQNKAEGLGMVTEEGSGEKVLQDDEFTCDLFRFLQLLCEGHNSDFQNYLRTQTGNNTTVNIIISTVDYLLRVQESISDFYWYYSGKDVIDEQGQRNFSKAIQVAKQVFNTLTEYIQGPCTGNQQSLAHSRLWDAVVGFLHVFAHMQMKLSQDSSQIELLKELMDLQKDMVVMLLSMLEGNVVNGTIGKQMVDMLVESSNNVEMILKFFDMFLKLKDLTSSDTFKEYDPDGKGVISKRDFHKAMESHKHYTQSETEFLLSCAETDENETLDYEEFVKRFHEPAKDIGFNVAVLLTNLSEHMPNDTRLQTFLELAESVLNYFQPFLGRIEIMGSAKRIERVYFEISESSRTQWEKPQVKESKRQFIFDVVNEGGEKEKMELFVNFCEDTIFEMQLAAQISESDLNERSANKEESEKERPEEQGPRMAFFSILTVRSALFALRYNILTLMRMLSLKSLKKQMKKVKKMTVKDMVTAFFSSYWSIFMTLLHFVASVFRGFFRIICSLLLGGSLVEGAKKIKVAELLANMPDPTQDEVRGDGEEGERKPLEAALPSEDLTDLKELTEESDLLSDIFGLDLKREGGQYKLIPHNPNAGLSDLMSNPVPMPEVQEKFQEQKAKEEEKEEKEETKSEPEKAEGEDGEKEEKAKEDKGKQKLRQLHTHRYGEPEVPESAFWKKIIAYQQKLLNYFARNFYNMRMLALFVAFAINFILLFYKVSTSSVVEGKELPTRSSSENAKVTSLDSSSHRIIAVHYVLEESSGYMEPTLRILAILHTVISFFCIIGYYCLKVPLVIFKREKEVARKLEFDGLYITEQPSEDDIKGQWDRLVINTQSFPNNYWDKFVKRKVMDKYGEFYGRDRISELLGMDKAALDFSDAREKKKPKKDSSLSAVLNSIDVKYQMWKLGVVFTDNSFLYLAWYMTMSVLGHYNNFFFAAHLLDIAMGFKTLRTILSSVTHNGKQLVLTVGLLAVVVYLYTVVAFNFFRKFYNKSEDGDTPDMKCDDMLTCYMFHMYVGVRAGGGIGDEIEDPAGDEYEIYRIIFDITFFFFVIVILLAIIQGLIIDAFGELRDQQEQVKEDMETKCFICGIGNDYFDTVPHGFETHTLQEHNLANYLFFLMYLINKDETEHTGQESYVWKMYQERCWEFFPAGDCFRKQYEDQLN
# T1 sequence (P68106 whole entry partner): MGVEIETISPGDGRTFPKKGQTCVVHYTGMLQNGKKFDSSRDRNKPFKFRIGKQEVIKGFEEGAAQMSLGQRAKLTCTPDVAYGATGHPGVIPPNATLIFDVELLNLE
smiles,measurement,setting,value
COc1ccc2c(c1)CN(Cc1ccc(C(=O)O)cc1)CCS2 [Compound 1],calstabin2 binding to RyR2,RyR2 [1],increased
same,abnormal RyR2 activity ([3H]ryanodine binding) at resting Ca2+ concentration,"RyR2 [2]; RyR2 immunoprecipitated from COVID-19 brain lysates, 150 nM free Ca2+, as percent of maximum binding (20 μM Ca2+), FIG. 3C, p<0.05 vs untreated COVID-19",decreased
same,RyR2 channel leak,RyR2 [2]; ex vivo treatment of COVID-19 patient brain samples,corrected; also recorded: fixed the channel leak

# — US20230302013A1, “METHOD OF TREATING VIRAL-INDUCED COGNITIVE D[…] TARGETING LEAKY RyR2 CHANNELS” (The Trustees of Columbia University in the City of New York, priority 2022, published 2023)
